Read-outs that look alike come from different tables or passages of the source.
Legend:
[1] = target: T1, "peripheral" receptor sites of benzodiazepines (Rattus norvegicus, UniProt P16257); experiment: Affinity for "peripheral" receptor sites of benzodiazepines: displacement of tritiated diazepam on kidney membranes from the rat; type: binding
T1 construct: on kidney membranes from the rat; from tissue; host or cells: rat kidney membranes
Description: The products have been studied according to the method of C. BRAESTRUP et al, Proc. Natl. Acad. Sci. USA, 1977, 74, 3805, on kidney membranes from the rat.

[2] = tested on: binding sites of (^3 H) diazepam in the brain; conditions: cited from earlier work
[3] = tested on: binding sites of (^3 H) diazepam in the kidney; conditions: cited from earlier work; for activity at the binding sites of (^3 H) diazepam in the kidney (peripheral level): in words; for classification by decreasing affinity, "peripheral" type: rank order

Row | SMILES | Ki ([1]; read-out: Ki) [nM] | also measured
1 | CCN(CC)C(=O)c1cc(-c2ccccc2)c2ccccc2c1 [Example 1, N,N-diethyl 4-phenyl naphthalene 2-carboxamide] | 5.4 | 
2 | CCN(CC)C(=O)c1cc(-c2ccccc2)c2ccccc2n1 [Example 3, N,N-diethyl 4-phenyl quinoline 2-carboxamide] | 27 | 
3 | CCN(CC)C(=O)c1cc2ccccc2c(-c2ccccc2)n1 [Example 5, N,N-diethyl 1-phenyl isoquinoline 3-carboxamide] | 150 | 
4 | CCN(CC)C(=O)c1cc2ccccc2c(-c2ccccc2Cl)n1 [Example 6, N,N-diethyl 1-(2-chloro-phenyl) isoquinoline 3-carboxamide] | 17 | 
5 | O=C(c1cc2ccccc2c(-c2ccccc2)n1)N1CCCCC1 [Example 7, 1-[3-(1-phenylisoquinolyl)carbonyl]piperidine] | 210 | 
6 | CCC(C)N(C)C(=O)c1cc2ccccc2c(-c2ccccc2)n1 (stereo not shown) [Example 10, N-methyl N(1-methylpropyl) 1-phenyl isoquinoline 3-carboxamide] |  | Ki [1]: 2 nM
7 | CCN(CC)C(=O)c1cc2ccccc2c(-c2cccc(Cl)c2)n1 [Example 11, N,N-diethyl 1-(3-chlorophenyl) isoquinoline 3-carboxamide] | 9 | 
8 | CCN(CC)C(=O)c1cc2ccccc2c(-c2ccc(C)cc2)n1 [Example 12, N,N-diethyl 1-(4-methylphenyl) isoquinoline 3-carboxamide] | 99 | 
9 | O=C(c1cc2ccccc2c(-c2ccccc2Cl)n1)N1CCCCC1 [Example 13, 1-[[1-(2-chlorophenyl) 3-isoquinolyl]carbonyl]piperidine] | 72 | 
10 | CCCN(CCC)C(=O)c1cc2ccccc2c(-c2ccccc2Cl)n1 [Example 14, N,N-dipropyl 1-(2-chlorophenyl) isoquinoline 3-carboxamide] | 18 | 
11 | CCN(CC)C(=O)c1cc2ccccc2c(-c2cccc(F)c2)n1 [Example 15, N,N-diethyl 1-(3-fluorophenyl) isoquinoline 3-carboxamide] | 20 | 
12 | CCC(C)N(C)C(=O)c1cc2ccccc2c(-c2ccccc2F)n1 (stereo not shown) [Example 16, N-methyl N-(1-methylpropyl) 1-(2-fluorophenyl) isoquinoline 3-carboxamide] | 0.9 | 
13 | CN(Cc1ccccc1)C(=O)c1cc2ccccc2c(-c2ccccc2Cl)n1 [Example 17, N-methyl N-phenylmethyl 1-(2-chlorophenyl) isoquinoline 3-carboxamide] | 117 | 
14 | CC(C)N(C(=O)c1cc2ccccc2c(-c2ccccc2Cl)n1)C(C)C [Example 24, N,N-di(1-methylethyl) 1-(2-chlorophenyl) isoquinoline 3-carboxamide] | 20 | 
15 | C=CC(C)N(C)C(=O)c1cc2ccccc2c(-c2ccccc2Cl)n1 (stereo not shown) [Example 25, N-methyl N(1-methylpropene-2-yl) 1-(2-chlorophenyl) isoquinoline 3-carboxamide] | 3 | 
16 | CCN(CC)C(=O)c1cc2sccc2c(-c2ccccc2Cl)n1 [Example 31, N,N-diethyl 4-(2-chlorophenyl) thieno[3,2-c]pyridine 6-carboxamide] | 9 | 
17 | CCN(CC)C(=O)c1cc2ccsc2c(-c2ccccc2Cl)n1 [Example 32, N,N-diethyl 7-(2-chlorophenyl) thieno[2,3-c]pyridine 5-carboxamide] | 6.3 | 
18 | CCN(CC)C(=O)c1nc(-c2ccccc2)c2ccccc2n1 [Example 33, N,N-diethyl 4-phenyl quinazoline 2-carboxamide] | 27 | 
19 | CCC(C)N(C)C(=O)c1cc(-c2ccccc2F)c2ccccc2n1 (stereo not shown) [Example 35, N-methyl N(1-methylpropyl) 4-(2-fluorophenyl) quinoline 2-carboxamide] | 2 | 
20 | CCN(CC)C(=O)c1cc(-c2cccc([N+](=O)[O-])c2)c2ccccc2n1 [Example 38, N,N-diethyl 4-(3-nitrophenyl) quinoline 2-carboxamide] | 30 | 
21 | CCCCN(CCCC)C(=O)c1cc2ccccc2c(-c2ccccc2)n1 [Example 39, N,N-dibutyl 1-phenyl isoquinoline 3-carboxamide] | 21 | 
22 | CCC1CCCCN1C(=O)c1cc2ccccc2c(-c2ccccc2)n1 (stereo not shown) [Example 40, 2-ethyl 1-[(1-phenyl 3-isoquinolyl)carbonyl]piperidine] | 16 | 
23 | CC[C@@H]1CCCCN1C(=O)c1cc2ccccc2c(-c2ccccc2)n1 [Example 41, 2(R)-ethyl 1-[(1-phenyl 3-isoquinolyl)carbonyl]piperidine] | 22 | 
24 | CC[C@H]1CCCCN1C(=O)c1cc2ccccc2c(-c2ccccc2)n1 [Example 42, 2(S)-ethyl 1-[(1-phenyl 3-isoquinolyl)carbonyl]piperidine] | 13 | 
25 | CCN(CC)C(=O)c1cc2ccccc2c(-c2cccc(C(F)(F)F)c2)n1 [Example 43, N,N-diethyl 1-(3-trifluoromethylphenyl) isoquinoline 3-carboxamide] | 13 | 
26 | CCC(C)N(C)C(=O)c1cc2ccsc2c(-c2ccccc2Cl)n1 (stereo not shown) [Example 46, N-methyl N-(1-methylpropyl) 7-(2-chlorophenyl) thieno[2,3-c]pyridine 5-carboxamide] | 7 | 
27 | CCC(C)N(C)C(=O)c1cc2sccc2c(-c2ccccc2Cl)n1 (stereo not shown) [Example 47, N-methyl N-(1-methylpropyl) 4-(2-chlorophenyl) thieno[3,2-c]pyridine 6-carboxamide] | 1 | 
28 | CN1C(=O)CN=C(c2ccc(Cl)cc2)c2cc(Cl)ccc21 [Ro-5-4864] |  | affinity for the binding sites of (^3 H) diazepam in the brain (central level) ([2]; brain, in words): inactive at the central level; classification by decreasing affinity, "cerebral" type ([2]; rank order): clonazepan>diazepam>Ro-5-4864; activity at the binding sites of (^3 H) diazepam in the kidney (peripheral level) [3]: very active at the peripheral level; classification by decreasing affinity, "peripheral" type [3]: Ro-5-4864>diazepam>clonazepam
29 | O=C1CN=C(c2ccccc2Cl)c2cc([N+](=O)[O-])ccc2N1 [clonazepam] |  | activity at the binding sites of (^3 H) diazepam in the kidney (peripheral level) [3]: practically inactive; classification by decreasing affinity, "peripheral" type [3]: Ro-5-4864>diazepam>clonazepam
30 | CN1C(=O)CN=C(c2ccccc2)c2cc(Cl)ccc21 [diazepam] |  | classification by decreasing affinity, "peripheral" type [3]: Ro-5-4864>diazepam>clonazepam

From patent publication US4499094A, “Derivatives of arene and hetero-arene carboxamides and their use as medicaments” (Pharmuka Laboratoires, priority 1982, dated 1985)
